The values that follow come from patent US7417156B2, “Orally active, antimalarial, anticancer, artemisinin-derived trioxane dimers” (Johns Hopkins University, priority 2002, dated 2008).

The term IC50 denotes the concentration needed to halve the response being measured.

Data set [1] has as its system P. berghei NY malaria parasite. As to the kind of experiment: Antimalarial efficacies in vivo in mice. The text has this:
Neither overt toxicity nor behavioral modification was observed due to drug administration in any of these mouse experiments.

Another data set has as its system 60 cell line panel. It counts as cell-based. Conditions: leukemia cell line RPM 1-8226, melanoma cell line SK-MEL-5, renal cancer cell line ACHN.
Data set [2] deals with chloroquine-sensitive P. falciparum (NF54). As to the kind of experiment: Antimalarial activity in vitro, [3H]hypoxanthine incorporation. It is filed as cell-based.
The test system of data set [3] is Ehrlich ascites tumor (EAT) cells. To be noted: MTT assay; cited from earlier work. A general note: Formazan colour is commonly taken as a measure of viable cells.
In the next data set the test system is P. berghei. To be noted: P. berghei-infected mice; cited from earlier work.
A further data set concerns male CD-1 mice. As to the kind of experiment: Acute toxicity study, single intraperitoneal injection. To be noted: single ip, male CD-1 mice. The method, then:
Each compound was dissolved in DMSO (Mallinkrodt Lot No. V18H15) to achieve a concentration of 200 mg/ml, and then 3 parts sesame oil (Spectrum Lot No. M10656) was added to make a working concentration of 50 mg/ml for dose administration. Stability, strength, and uniformity of the test articles in the dose formulations were not determined for this study.
Forty-two CD1 male mice purchased from Charles River Laboratories (Wilmington, Mass.) were used in the study. Mice were quarantined for 3 days prior to initiation of the study.
Mice were weighed and randomized into treatment groups on the day prior to the first dose administration. Due to limitations in the amount of available test materials, fewer mice in 1000 mg/kg groups were treated than specified in the protocol. The numbers of animals intended to be used and actually used with each compound at each dose level are shown in the table below; the only differences are in the high-dose groups.
Surviving animals were sacrificed on Day 8 and blood was collected for clinical pathology evaluations.
Mortality and morbidity were checked twice daily on weekdays and once daily on the weekend, see Table VI. Animals were weighed daily and prior to necropsy.

The test system of the next data set is malaria parasite. As to the kind of experiment: Efficacy Study Blood Schizontocidal Activity. Also noted: ED90: unit not given here. It is filed as in vivo.
[4] abbreviates: Table I, NF54 strain, read-out: IC50.

Several values for one entry are separate records, joined by “and”; a condition that tells them apart may be missing. Equal values may be shown once. Where a name gives a salt, the structure may show the parent alone. Read-outs that look alike come from different tables or passages of the source.

As to `C[C@@H]1[C@H](OCc2ccc(C(=O)O)cc2)O[C@@H]2O[C@@]3(C)CC[C@@H]4[C@@H](C)CC[C@@H]1[C@]24OO3` [Artelinic Acid, artelinic acid, reference compound], in data set [1] (route IV), the ED50 was 11.0 mg/kg × 4 and 5.6 mg/kg × 4; the ED90 was 25.0 mg/kg × 4 and 43.0 mg/kg × 4; the “% Parasite Supression at 10 mg/kg” value was 54.7% and 42.4%.

Regarding `C[C@@H]1CC[C@H]2[C@@H](C)C(CC3(CC4OC5O[C@]6(C)CC[C@H]7[C@H](C)CC[C@@H]([C@H]4C)C57OO6)CO3)OC3O[C@]4(C)CCC1C32OO4` (stereo partly drawn) [Compound 6, bis-trioxane epoxide], the “growth inhibition in words” value in the data set with 60 cell line panel is listed as “less inhibitory”. In addition, the IC50 in data set [2] (setting [4]) turned out to be 2.8 nM.

Take `C[C@@H]1CC[C@H]2[C@@H](C)C(CC(=O)CC3OC4O[C@]5(C)CC[C@H]6[C@H](C)CC[C@@H]([C@H]3C)C46OO5)OC3O[C@]4(C)CCC1C32OO4` (stereo partly drawn) [Compound 7, bis-trioxane ketone]: in the data set with 60 cell line panel, the “growth inhibition in words” value is “less inhibitory”. The concentration for half-maximal inhibition (IC50) entry is “below one nM” in data set [2] and 0.91 nM in data set [2] (setting [4]). Further, the “antimalarial potency in vitro relative to artemisinin” value in data set [2] is listed as 10 times.

Regarding `CC1CCC2C(C)C(CC(COC(=O)c3ccncc3)CC3OC4OC5(C)CCC6C(C)CCC(C3C)C46OO5)OC3OC4(C)CCC1C32OO4` (stereo not drawn) [Compound 8b, bis-trioxane primary alcohol isonicotinate], in data set [2] (setting [4]), the IC50 was 1.7 nM.

With `CC1CCC2C(C)C(CC(COC(=O)c3ccc[n+]([O-])c3)CC3OC4OC5(C)CCC6C(C)CCC(C3C)C46OO5)OC3OC4(C)CCC1C32OO4` (stereo not drawn) [Compound 15, bis-trioxane primary alcohol nicotinate N-oxide], the IC50 result was “sub-nanomolar” in data set [2] and 0.58 nM in data set [2] (setting [4]).

Take `CC1CCC2C(C)C(CC(O)CC3OC4OC5(C)CCC6C(C)CCC(C3C)C46OO5)OC3OC4(C)CCC1C32OO4` (stereo not drawn) [Compound 17, bis-trioxane secondary alcohol]: the results for the IC50 entry in data set [2] and in data set [2] (setting [4]) were “below one nM” and 0.66 nM, respectively.

Take `CC1CCC2C(C)C(CC(O)(COC(=O)c3cc[n+]([O-])cc3)CC3OC4OC5(C)CCC6C(C)CCC(C3C)C46OO5)OC3OC4(C)CCC1C32OO4` (stereo not drawn) [Compound 18, bis-trioxane vicinal diol isonicotinate N-oxide]: the IC50 result in data set [2] was “sub-nanomolar”; in data set [2] (setting [4]), 0.34 nM.

`CC1CCC2C(C)C(CC(O)(COCC(=O)O)CC3OC4OC5(C)CCC6C(C)CCC(C3C)C46OO5)OC3OC4(C)CCC1C32OO4` (stereo not drawn) [Compound 21, bis-trioxane β-hydroxy O-acetic acid]: the IC50 in data set [2] (setting [4]) was found to be 4.4 nM.

Consider `CC1CCC2C(C)C(CC(O)(COC(=O)c3ccc[n+]([O-])c3)CC3OC4OC5(C)CCC6C(C)CCC(C3C)C46OO5)OC3OC4(C)CCC1C32OO4` (stereo not drawn) [Compound 23, bis-trioxane vicinal diol nicotinate N-oxide], for which the IC50 result in data set [2] is “sub-nanomolar”; in data set [2] (setting [4]) it was 0.4 nM.

On to `CC1CCC2C(C)C(CC(CC3OC4OC5(C)CCC6C(C)CCC(C3C)C46OO5)OC(=O)c3cc[n+]([O-])cc3)OC3OC4(C)CCC1C32OO4` (stereo not drawn) [Compound 24, bis-trioxane secondary alcohol isonicotinate N-oxide], for which the IC50 entry is “sub-nanomolar” in data set [2] and 0.42 nM in data set [2] (setting [4]).

On to `CC1CCC2C(C)C(CC(CC3OC4OC5(C)CCC6C(C)CCC(C3C)C46OO5)OC(=O)c3ccc[n+]([O-])c3)OC3OC4(C)CCC1C32OO4` (stereo not drawn) [Compound 25, bis-trioxane secondary alcohol nicotinate N-oxide], for which the IC50 result in data set [2] was “sub-nanomolar”; in data set [2] (setting [4]), 0.31 nM.

Consider `CCOP(=O)(OCC)OCC(CC1OC2OC3(C)CCC4C(C)CCC(C1C)C24OO3)CC1OC2OC3(C)CCC4C(C)CCC(C1C)C24OO3` (stereo not drawn) [Compound 26, bis-trioxane primary alcohol diethyl phosphoric acid triester], for which the IC50 result in data set [2] is “sub-nanomolar”; in data set [2] (setting [4]), 0.74 nM.

On to `COP(=O)(OC)OCC(CC1OC2OC3(C)CCC4C(C)CCC(C1C)C24OO3)CC1OC2OC3(C)CCC4C(C)CCC(C1C)C24OO3` (stereo not drawn) [Compound 27, bis-trioxane primary alcohol dimethyl phosphoric acid triester], for which the IC50 result in data set [2] was “sub-nanomolar”; in data set [2] (setting [4]), 0.48 nM.

As to `CC1CCC2C(C)C(OC(=O)CN(C)C)OC3OC4(C)CCC1C32OO4` (stereo not drawn) [Compound 32, α-dihydroartemisinin dimethylglycinate], the IC50 in data set [2] (setting [4]) turned out to be 1.1 nM.

As to `CC1CCC2C(C)C(OC(=O)c3cc[n+]([O-])cc3)OC3OC4(C)CCC1C32OO4` (stereo not drawn) [Compound 33, α-dihydroartemisinin isonicotinate N-oxide], the IC50 in data set [2] (setting [4]) was determined as 0.81 nM.

As for `CC1CCC2C(C)C(CC(O)(CC(=O)O)CC3OC4OC5(C)CCC6C(C)CCC(C3C)C46OO5)OC3OC4(C)CCC1C32OO4` (stereo not drawn) [Compound 35, bis-trioxane tertiary alcohol carboxylic acid], the IC50 in data set [2] (setting [4]) came to 2 nM.

For the compound `COC(=O)OCC(CC1OC2OC3(C)CCC4C(C)CCC(C1C)C24OO3)CC1OC2OC3(C)CCC4C(C)CCC(C1C)C24OO3` (stereo not drawn) [Compound 36, bis-trioxane primary alcohol methyl carbonate], in data set [2] (setting [4]), the IC50 came out at 1.7 nM.

In the case of `CCOC(=O)OCC(CC1OC2OC3(C)CCC4C(C)CCC(C1C)C24OO3)CC1OC2OC3(C)CCC4C(C)CCC(C1C)C24OO3` (stereo not drawn) [Compound 37, bis-trioxane primary alcohol ethyl carbonate], in data set [2] (setting [4]), the IC50 was 2.8 nM.

In the case of `COS(=O)(=O)CC(O)(CC1OC2OC3(C)CCC4C(C)CCC(C1C)C24OO3)CC1OC2OC3(C)CCC4C(C)CCC(C1C)C24OO3` (stereo not drawn) [Compound 38, bis-trioxane tertiary alcohol methyl sulfonate], the IC50 in data set [2] (setting [4]) is 200 nM.

With `CC1CCC2C(C)C(CC(O)(CC3OC4OC5(C)CCC6C(C)CCC(C3C)C46OO5)CS(=O)(=O)N(C)C)OC3OC4(C)CCC1C32OO4` (stereo not drawn) [Compound 40, bis-trioxane tertiary alcohol N,N-dimethylsulfonamide], the figures for the IC50 entry in data set [2] and in data set [2] (setting [4]) were “sub-nanomolar” and 0.73 nM, respectively.

Turning to `CC1CCC2C(C)C(CC3(CC4OC5OC6(C)CCC7C(C)CCC(C4C)C57OO6)COC(=O)O3)OC3OC4(C)CCC1C32OO4` (stereo not drawn) [Compound 41, bis-trioxane vicinal diol cyclic carbonate], the values for the half-maximal inhibitory concentration (IC50) result in data set [2] and in data set [2] (setting [4]) were “sub-nanomolar” and 0.59 nM, respectively.

On to `CC1CCC2C(C)C(CC3(CC4OC5OC6(C)CCC7C(C)CCC(C4C)C57OO6)COS(=O)(=O)O3)OC3OC4(C)CCC1C32OO4` (stereo not drawn) [Compound 42, bis-trioxane vicinal diol cyclic sulfate], for which the IC50 in data set [2] (setting [4]) is 19 nM.

With `C[C@H]1[C@@H](O[C@H]2O[C@@H]3O[C@@]4(C)CC[C@H]5[C@H](C)CC[C@@H]([C@H]2C)[C@@]35OO4)O[C@@H]2O[C@@]3(C)CC[C@H]4[C@H](C)CC[C@@H]1[C@@]24OO3` [II-7, dihydroartemisinin condensation by-product], in data set [3], the IC50 is 1400 nM. Further, the SD90 in the data set with P. berghei was 10 mg/kg.

Regarding `CC1=CO[C@@H]2O[C@]3(C)CC[C@H]4[C@H](C)CC[C@@H]1[C@@]24OO3` [III], the activity in words entry in the data set with P. berghei is “inactive”.

For the compound `C[C@H]1[C@H](OC(=O)CCC(=O)[O-])O[C@@H]2O[C@@]3(C)CC[C@H]4[C@H](C)CC[C@@H]1[C@@]24OO3.[Na+]` [Sodium Artesunate, sodium artesunate, reference compound], the Mortality result in the data set with male CD-1 mice (125 mg/kg) is reported as “No death”; in the data set on male CD-1 mice (250 mg/kg), 1/3 dead; in the data set with male CD-1 mice (500 mg/kg), 3/3 dead. The ED50 is 5 mg/kg in the data set on malaria parasite (Route: IV); 6 mg/kg with malaria parasite (Route: PO); 10.0 mg/kg × 4 and 5.5 mg/kg × 4 in data set [1] (route PO). Moreover, the ED90 with malaria parasite (Route: IV) is 40.0; in the data set with malaria parasite (Route: PO), 60.0; in data set [1] (route PO), 39.0 mg/kg × 4 and 70.0 mg/kg × 4. Besides, the “% Parasite Supression at 10 mg/kg” value in data set [1] (route PO) was 52.8% and 50.9%.
